We go through two compounds from patent publication US8980899B2, “Methods of inhibiting Ire1” (The Regents of the University of California, priority 2009, dated 2015).

Assay [1] concerns Ire1 (XBP-1 YFP reporter in IMR90 cells). The assay is described as follows: Cell-based IRE1 inhibition assay with human fibroblasts (IMR90), XBP-1 YFP reporter. To be noted: compound 2 uM, 8 hrs. The protocol: FIG. 6 depicts histogram results of cell-based Ire1 inhibition assay employing IMR90 human diploid fibroblastic cell line. […] Induction of XBP-1 YFP reporter was assayed by fluorescence microscopy. See Example 6. Test compounds (left to right): DMSO; Tg; bortezomib; MG132; Irestatin; AD71c; AD73c; AD58; AD59. Ordinate: relative fluorescence (proportional to Ire1 activity.)
A cell-based assay of Ire1 inhibition was conducted on human diploid fibroblastic cells (IMR90) expressing an XBP-1 YFP (yellow fluorescent protein) reporter. The effect of test compound or control on UPR induction was assayed by fluorescence microscopy to measure the fluorescence of YFP expressed in a Ire1-dependent manner. The XBP1-YFP reporter only produces YFP after a frameshift produced by splicing of its intron by activated IRE1. As known in the art, higher fluorescence intensity means higher Ire1 and UPR activity. Conversely, lower fluorescence intensity means inhibitions of Ire1 and UPR.
IMR90 stable retroviral transductants expressing an XBP-1 YTP reporter were plated in a 96 well clear bottom plate and allowed to recover overnight (80% confluency). […] Induction of the XBP1-YFP reported was assayed by fluorescence microscopy (GE Healthcare IN Cell Analyzer 2000). The number of YFP cells and the total number of cells, as judged by nuclear staining (Hoechst) were counted in each well. […]

Assay [2] deals with Recombinant human Ire1-alpha (Homo sapiens, UniProt O75460). The assay is described as follows: In vitro inhibition assay, cleavage of 32P-stem-loop RNA by human Ire1. It is filed as biochemical. To be noted: in vitro cleavage of 32P-stem-loop RNA by human Ire1, AD series; Control (no inhibitor) 8.8310e−3. On the procedure:
Recombinant human […]) was mixed with reaction buffer, inhibitor solution in DMSO, and ^32P-labeled RNA substrate having sequence 5'-[…] NO:1). Reactions were conducted at 30° C. and initiated by adding the RNA to reaction pre-mix containing all the components minus the RNA. […] (The reaction mixture may be modified by using different components or concentrations, different RNA substrate, or different Ire1 protein construct.) At time intervals (0 seconds, 10 seconds, 30 seconds, and 3 minutes), 1 μl aliquots of reaction mixture were taken and quenched in 10 M Urea, 0.1% SDS. Samples were analyzed by denaturing polyacrylamide gel electrophoresis and quantified using Typhoon phosphorImager. […] Reactions with Irestatin and exemplary compounds were conducted analogously. Irestatin was a gift obtained from the SPECS screen available as 5 mM solution in DMSO at UCSF small molecule discovery center.

The target in a further assay is T1, yIre1 (Saccharomyces cerevisiae, UniProt P32361).
T1 sequence (P32361 19-1115): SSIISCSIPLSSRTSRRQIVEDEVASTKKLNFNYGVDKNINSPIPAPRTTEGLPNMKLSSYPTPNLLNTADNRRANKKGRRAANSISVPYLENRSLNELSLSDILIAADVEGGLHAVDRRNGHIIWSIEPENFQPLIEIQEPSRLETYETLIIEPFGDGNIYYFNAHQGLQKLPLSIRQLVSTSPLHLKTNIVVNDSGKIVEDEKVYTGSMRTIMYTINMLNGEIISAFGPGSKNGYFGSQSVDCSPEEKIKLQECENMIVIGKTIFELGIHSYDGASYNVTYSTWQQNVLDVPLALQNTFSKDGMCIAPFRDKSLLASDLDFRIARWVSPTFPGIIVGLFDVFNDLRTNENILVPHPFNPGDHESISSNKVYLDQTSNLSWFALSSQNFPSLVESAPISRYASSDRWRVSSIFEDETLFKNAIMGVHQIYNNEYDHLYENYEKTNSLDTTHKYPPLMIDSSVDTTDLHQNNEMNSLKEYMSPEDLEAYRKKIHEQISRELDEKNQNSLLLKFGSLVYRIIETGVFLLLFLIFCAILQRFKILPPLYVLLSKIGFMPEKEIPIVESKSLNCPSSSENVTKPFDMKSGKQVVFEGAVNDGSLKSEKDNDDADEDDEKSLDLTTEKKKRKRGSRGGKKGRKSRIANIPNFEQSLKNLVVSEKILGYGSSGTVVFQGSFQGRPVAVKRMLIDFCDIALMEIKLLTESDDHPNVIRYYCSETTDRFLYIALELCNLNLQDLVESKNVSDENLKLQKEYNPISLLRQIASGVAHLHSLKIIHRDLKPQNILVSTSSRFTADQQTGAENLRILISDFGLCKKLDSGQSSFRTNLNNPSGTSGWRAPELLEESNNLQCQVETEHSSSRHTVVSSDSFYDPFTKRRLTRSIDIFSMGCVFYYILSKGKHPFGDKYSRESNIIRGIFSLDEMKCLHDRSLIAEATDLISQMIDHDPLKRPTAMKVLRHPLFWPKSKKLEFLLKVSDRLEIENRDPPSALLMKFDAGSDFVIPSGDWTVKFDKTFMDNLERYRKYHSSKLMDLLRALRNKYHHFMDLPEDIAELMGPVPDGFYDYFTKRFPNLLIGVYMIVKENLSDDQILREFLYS
Put plainly: RNase cleavage assay (yIre1 activation). It is filed as biochemical, yeast. To be noted: yIre1 RNA cleavage, 30° C., 2 mM ADP; Control (no inhibitor) 0.000504. The protocol:
RNA cleavage reactions were conducted at 30° C. in buffer containing 20 mM HEPES (pH 7.5), 70 mM NaCl, 2 mM ADP (pH 7.0), 2 mM Mg(OAc)2, 5 mM DTT, 5% glycerol, less than 1 nM ^32p-labeled RNA substrate, and 3 nM-[…] Ire1. Reaction solutions and buffers were designed using Biochem Lab Solutions 3.5. Reactions were prepared such that 1 μl of RNA was added to 9 μl of pre-warmed reaction mixture containing all components except RNA. Typically, 3-10 minute time courses were collected starting from 5 seconds for the first time point. At time intervals, 1 μl of solution was withdrawn from each reaction and mixed with 6 μl stop solution containing 10 M urea, 0.1% SDS, 0.1 mM EDTA, 0.05% xylene cyanol, and 0.05% bromophenol blue. The samples were separated by a denaturing 10% PAGE and exposed on a phosphor storage screen. The screens were scanned on a Storm or a Typhoon instrument and quantified using ImageQuant 5.0 or GelQuant.NET 1.4 programs. The data were plotted and fit in SigmaPlot 6.0.

A further assay deals with hIre1 (Homo sapiens, UniProt O75460). Put plainly: Titrations of Ire1 inhibitors to measure Ki using 1 μM hIre1. To be noted: 1 μM hIre1, 5′-32p-HP21, 30° C. It counts as biochemical. On the procedure: Recombinant human Ire1-alpha (1 μM f/c) was mixed with reaction buffer, inhibitor solution in DMSO, and ^32P-labeled RNA substrate having sequence 5′-UGCACCUCUGCAGCAGGUGCA (SEQ ID NO:1). Reactions were conducted at 30° C. and initiated by adding the RNA to reaction pre-mix containing all the components minus the RNA. The final reaction contained: 20 mM HEPES pH 7, 70 mM NaCl, 2 mM MgCl2, 5% glycerol, 4 mM DTT, 10% DMSO, 1 μM Ire1 and <1 nM 32P-labeled RNA. (The reaction mixture may be modified by using different components or concentrations, different RNA substrate, or different Ire1 protein construct.)
Chain of hIre1 (O75460 19-977): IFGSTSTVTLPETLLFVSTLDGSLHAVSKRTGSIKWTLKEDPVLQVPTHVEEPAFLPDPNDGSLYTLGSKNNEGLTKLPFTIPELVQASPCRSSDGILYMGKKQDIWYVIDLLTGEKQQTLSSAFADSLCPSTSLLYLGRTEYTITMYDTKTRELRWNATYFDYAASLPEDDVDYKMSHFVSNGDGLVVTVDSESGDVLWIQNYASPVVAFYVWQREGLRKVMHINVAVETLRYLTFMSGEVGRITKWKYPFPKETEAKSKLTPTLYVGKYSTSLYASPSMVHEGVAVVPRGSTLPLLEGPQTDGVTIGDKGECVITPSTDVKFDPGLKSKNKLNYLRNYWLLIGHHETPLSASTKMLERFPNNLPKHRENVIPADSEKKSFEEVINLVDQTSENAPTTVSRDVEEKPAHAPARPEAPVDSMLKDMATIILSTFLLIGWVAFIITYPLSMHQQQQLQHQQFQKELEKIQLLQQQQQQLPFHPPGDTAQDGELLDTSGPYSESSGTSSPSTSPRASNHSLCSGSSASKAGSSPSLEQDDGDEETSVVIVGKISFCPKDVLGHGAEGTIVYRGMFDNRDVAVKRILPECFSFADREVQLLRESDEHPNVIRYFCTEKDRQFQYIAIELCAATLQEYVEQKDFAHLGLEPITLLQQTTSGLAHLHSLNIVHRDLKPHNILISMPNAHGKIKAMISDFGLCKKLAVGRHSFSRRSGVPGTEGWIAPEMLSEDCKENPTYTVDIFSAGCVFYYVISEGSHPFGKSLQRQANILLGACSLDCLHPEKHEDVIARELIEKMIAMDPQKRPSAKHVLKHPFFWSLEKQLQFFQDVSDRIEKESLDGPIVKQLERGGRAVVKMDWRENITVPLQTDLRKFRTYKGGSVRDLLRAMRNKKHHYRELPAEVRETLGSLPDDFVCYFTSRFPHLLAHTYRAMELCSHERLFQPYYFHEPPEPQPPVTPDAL
At time intervals (0 seconds, ˜10 seconds, ˜30 seconds, and ˜3 minutes), 1 μl aliquots of reaction mixture were taken and quenched in 10 M Urea, 0.1% SDS. Samples were analyzed by denaturing polyacrylamide gel electrophoresis and quantified using Typhoon phosphorImager.
Inhibition was measured by the extent of RNA cleavage slowdown in the presence of inhibitor (0.3-100 μM) compared to reaction containing no inhibitors.

The Ki is a measure of affinity in units of concentration, obtained from inhibition or displacement. Higher therefore signals a looser hold on the target.

Chain of Recombinant human Ire1-alpha (O75460 19-977): as above

Turning to `CC(C)n1nc(-c2ccc(NC(=O)Nc3ccccc3)cc2)c2c(N)ncnc21` [AD58], the “inhibition of UPR (XBP-1 YFP reporter) induced by Tg” value in assay [1] is reported as “inhibit UPR”.
Regarding `Cn1nc(-c2ccc(NC(=O)Nc3cccc(C(F)(F)F)c3)cc2)c2c(N)ncnc21` [AD59, 1-(4-(4-amino-1-methyl-1H-pyrazolo[3,4-d]pyrimidin-3-yl)phenyl)-3-(3-(trifluoromethyl)phenyl)urea], the Ire1 activity in assay [2] is reported as 3.0550e−3; at yIre1 it was 0.0001. This compound also had a Ki on hIre1 of roughly 1000 nM. In assay [1], the “inhibition of UPR (XBP-1 YFP reporter) induced by Tg” value was “even more strongly”.
